Assay results from PubChem BioAssay AID488890 (Southern Research Specialized Biocontainment Screening …, 2010).
Results filed as inconclusive are left out. Activity calls are given as the source filed them. The rule behind the calls is not given here.

test system: Mycobacterium tuberculosis non-replicating, growth inhibition; test: growth inhibition of non-replicating M. tuberculosis (AID 488890)

Compound	IC50
CC(C)OC(=O)C(C)Oc1ccc(C(=O)NCCc2ccccc2)cc1 (centres undefined)	11.6 µM (inactive)
Cc1nnc(N/N=C/c2ccc(-c3ccc(Br)cc3)o2)n1N	3.49 µM
C/C(=N\NC(=O)c1ccc([N+](=O)[O-])c(C)c1)c1ccccc1Cl	12.2 µM (inactive)
O=C(COc1ccccc1)Nc1ccc(Cl)cn1	7.51 µM
C/C(=N\NC(=O)C(C)Oc1ccc([N+](=O)[O-])cc1)c1ccccn1 (centres undefined)	9.84 µM
O=C(Oc1cccc2cccnc12)c1ccc2c(c1)OCCO2	0.96 µM
O=C(Nc1nc2c(F)cc(F)cc2s1)c1ccccn1	2.12 µM
O=C(Nc1nc2ccccc2n1CCN1CCCC1)c1ccc(Cl)cc1	12.5 µM (inactive)
Cc1ccc(-c2nc3ccccn3c2Nc2ccccc2)o1	8.4 µM
CCCOC(=O)c1ccc(OC(=O)c2ccco2)cc1	21.9 µM (inactive)
Cc1ccc(NC(=O)COC(=O)C(NS(=O)(=O)c2ccc(Cl)cc2)C(C)O)cc1C (centres undefined)	22.1 µM (inactive)
CC1CCCN(CCC(=O)c2ccc(Br)cc2)C1 (centres undefined)	1.16 µM
CC(C)(C)/C(O)=C/c1nc2ccccc2oc1=O	6.85 µM
Cc1ccc(C)c(-c2csc(NC(=O)c3cnccn3)n2)c1	3.13 µM
O=C(COc1ccc2ccccc2c1)Nc1ccncc1	3.17 µM
O=C(NCc1cccs1)c1ccc(Br)o1	3.37 µM
Cc1ccc(C(=O)C=CNNC(=O)c2ccccc2)cc1	2.15 µM
c1ccc(-c2ccccc2OCCCCn2ccnc2)cc1	33.5 µM (inactive)
CCCOC(=O)c1ccc(NC(=O)Cc2cccs2)cc1	24.1 µM (inactive)
CC(Cc1cccs1)NC(=O)c1cccc(Cl)c1 (centres undefined)	8.14 µM

Compound	IC50
O=C(CCNc1ccc(Cl)c(C(F)(F)F)c1)c1ccco1	5.63 µM
Nc1cccn2c(-c3ccc(Cl)cc3)cnc12	8.34 µM
COC(CNC(=O)c1ccc2c3c(onc13)-c1ccccc1C2=O)OC	2.4 µM
O=C(Nc1nc2c(Cl)cccc2s1)c1ccc([N+](=O)[O-])o1	1.56 µM
O=C(COC(=O)CC1CCCC1)Nc1ccc(OC(F)F)cc1	10.8 µM (inactive)
O=C1N=c2ccccc2=C1c1c(O)n(-c2cccc(F)c2)[nH]c1=O	6.91 µM
O=C(CCN1CCCCCC1)c1ccccc1	9.1 µM
CCOC(=O)CNc1ccc(C(=O)OCC)cc1[N+](=O)[O-]	11 µM (inactive)
CCOc1ccc(Nc2ccc([N+](=O)[O-])c3nonc23)cc1	1.72 µM
O=[N+]([O-])c1ncccc1Oc1nc(-c2cccnc2)nc2ccccc12	0.73 µM
Cc1cc(-c2n[nH]c(=S)n2/N=C/C(Br)=C/c2ccccc2)n[nH]1	19.8 µM (inactive)
CSCCC(=O)N1CCCC(CNC(=O)c2ccc(-c3ccccc3)cc2)C1 (centres undefined)	17.9 µM (inactive)
CC(=O)OCCNc1cc(Sc2nc3ccccc3[nH]2)c2nonc2c1[N+](=O)[O-]	2.41 µM
COc1cccc2cc(-c3nc4ccccc4[nH]3)c(=O)oc12	< 0.2 µM
CCOC(=O)c1cc(-c2csc(COc3ccc(Cl)cc3)n2)on1	0.13 µM
N#C/C(N=Nc1ccccc1O)=N\Nc1ccccc1O	2.67 µM
CC1(C)CC(=O)C2=C(C1)OC(N)=C(C#N)C2C#Cc1ccccc1 (centres undefined)	4.07 µM
COC(=O)c1cc(/C=C/c2ccccc2)on1	2.18 µM
O=C(NNC(=O)C12CC3CC(CC(C3)C1)C2)c1ccccn1	6.79 µM
O=S1(=O)C=C(Sc2nc3cc(Cl)ccc3o2)c2ccccc21	0.3 µM

Compound	IC50
CSc1ccc(C(=O)C2CCCN(C(=O)c3ccc4c(c3)no[n+]4[O-])C2)cc1 (centres undefined)	4.03 µM
O=C(Nc1ccccc1)c1ccc(Br)o1	14 µM (inactive)
Cc1ccc(OCCCCn2ccnc2)c(Cl)c1	8.23 µM
O=C(Nc1nccs1)c1ccc(Br)cc1	39.5 µM (inactive)
CCOC(=O)C(Nc1ccc2ccccc2c1)C(=O)OCC	7.7 µM
O=C(C/C=N\OCc1ccc([N+](=O)[O-])cc1)Nc1ccc(Br)cc1	10.9 µM (inactive)
c1ccc(Cc2nnc(-c3ccccc3)o2)cc1	0.19 µM
O=C(CCC1CCCC1)c1c(O)c2ccccc2oc1=O	1.93 µM
CCc1nnc(NC(=O)c2cc3ccccc3oc2=O)s1	2.75 µM
Cc1cc(OCc2cc(C(=O)N(C)CCc3cnn(C)c3)no2)cc(C)c1Cl	30.6 µM (inactive)
CCOc1ccc(C(=O)Nc2ccc(N3CCN(C)CC3)cc2)cc1Br	30.5 µM (inactive)
Cc1cc(NCCCn2ccnc2)n2ncc(-c3ccc(Cl)cc3)c2n1	13.1 µM (inactive)
NC(=O)c1ccc(N=Cc2ccc([N+](=O)[O-])s2)cc1	11.8 µM (inactive)
O=C(Nc1nccs1)c1cc2cc(Cl)ccc2oc1=O	3.23 µM
CCS(=O)(=O)c1c([N+](=O)[O-])ncn1C	19.5 µM (inactive)
Cc1ccnc(NS(=O)(=O)c2ccc(NC(=O)c3ccc([N+](=O)[O-])s3)cc2)n1	8.3 µM
COc1ccc2c3c(cccc13)OCC2=O	25.9 µM (inactive)
COC(=O)c1ccc(OCC(=O)c2cccc(OC)c2)cc1	11 µM (inactive)
CC(C)(C)c1cc(C(=O)N/N=C/c2ccc([N+](=O)[O-])s2)n[nH]1	5.5 µM
